Molecules are shown by their SMILES. ≈ marks a conversion by molar mass, not a printed value.

In data set [1] the target is T1, Glucose-dependent insulinotropic receptor (Homo sapiens, UniProt Q8TDV5).
T1 sequence (Q8TDV5 whole entry): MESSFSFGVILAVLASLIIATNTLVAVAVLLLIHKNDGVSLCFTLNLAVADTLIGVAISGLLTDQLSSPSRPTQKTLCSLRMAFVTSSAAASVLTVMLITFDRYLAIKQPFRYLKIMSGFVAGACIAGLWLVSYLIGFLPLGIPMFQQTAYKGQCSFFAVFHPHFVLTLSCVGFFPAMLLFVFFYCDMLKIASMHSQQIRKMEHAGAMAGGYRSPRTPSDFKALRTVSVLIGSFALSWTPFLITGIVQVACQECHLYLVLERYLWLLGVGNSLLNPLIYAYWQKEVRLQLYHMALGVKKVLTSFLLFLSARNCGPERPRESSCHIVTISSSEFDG
The data set can be described thus: Agonist activity at human GPR119 expressed in CHO cells co-expressing Galpha15 assessed as increase of intracellular cAMP accumulation after 60 mins by HTRF assay. Format: functional, cell-based. In general terms: Changes in cAMP serve as a functional read-out for many G protein-coupled receptors.

Data set [2] addresses T2, Glucose-dependent insulinotropic receptor (Mus musculus, UniProt Q7TQP3).
T2 sequence (Q7TQP3 whole entry): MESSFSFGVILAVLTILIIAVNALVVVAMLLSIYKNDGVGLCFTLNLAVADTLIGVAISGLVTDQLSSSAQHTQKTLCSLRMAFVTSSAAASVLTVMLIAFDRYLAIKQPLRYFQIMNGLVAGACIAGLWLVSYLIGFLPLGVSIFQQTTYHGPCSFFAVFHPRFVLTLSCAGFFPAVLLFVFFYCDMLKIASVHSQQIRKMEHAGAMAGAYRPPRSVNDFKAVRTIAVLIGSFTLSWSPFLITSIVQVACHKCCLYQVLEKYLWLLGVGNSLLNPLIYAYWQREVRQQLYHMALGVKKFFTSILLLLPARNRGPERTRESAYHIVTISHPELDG
The data set can be described thus: Agonist activity at mouse GPR119 expressed in CHO cells co-expressing Galpha15 assessed as increase of intracellular cAMP accumulation after 60 mins by HTRF assay. Format: functional, cell-based.

In data set [3] the target is Voltage-gated inwardly rectifying potassium channel KCNH2 (Homo sapiens, UniProt Q12809). Kind of data set: Inhibition of human ERG.
A short description of data set [4]: Clearance in mouse at 1 mg/kg, iv and 10 mg/kg, po. It is filed as ADME, organism-based. As to conditions: in vivo.
Data set [5] is described as follows: Volume of distribution at steady state in mouse at 1 mg/kg, iv and 10 mg/kg, po. Format: ADME, organism-based. The settings on record: in vivo, read-out: Vdss.
Data set [6] in a line: Half life in mouse at 1 mg/kg, iv and 10 mg/kg, po. As to conditions: in vivo. It is filed as ADME, organism-based.
The test system of data set [7] is Mus musculus. Kind of data set: Dose normalized AUC in mouse at 1 mg/kg, iv and 10 mg/kg, po. Format: ADME, organism-based. As to conditions: in vivo.
Data set [8] relates to Mus musculus. Kind of data set: Antidiabetic activity in high fat fed po dosed C57BL/6 mouse assessed as change in AUC of blood glucose level administered 1 hr before glucose challenge measured up to 120 mins by oral glucose tolerance test. It is filed as functional. The settings on record: C57BL6, Blood, read-out: MED.
The nature of data set [9]: Solubility of compound in PEG400 after 3 to 7 days. Format: physicochemical.
Data set [10] deals with T3, Glucose-dependent insulinotropic receptor (Mus musculus) (UniProt Q7TQP3).
T3 sequence (whole entry): T2 sequence (Q7TQP3 whole entry)
Kind of data set: Agonist activity at mouse GPR119 expressed in CHO cells co-expressing Galpha15 assessed as increase of intracellular cAMP accumulation at 10 uM after 60 mins by HTRF assay. It is filed as functional, cell-based.

For data set [11], the system named is Mus musculus. Kind of data set: Antidiabetic activity in high fat fed C57BL/6 mouse assessed as change in AUC of blood glucose level at 30 mg/kg, po qd administered 1 hr before glucose challenge measured up to 120 mins by oral glucose tolerance test relative to control. It is filed as functional, C57BL6.
Data set [12] addresses T4, Glucose-dependent insulinotropic receptor (Homo sapiens) (UniProt Q8TDV5).
T4 sequence (whole entry): T1 sequence (Q8TDV5 whole entry)
The data set can be described thus: Agonist activity at human GPR119 expressed in CHO cells co-expressing Galpha15 assessed as increase of intracellular cAMP accumulation at 10 uM after 60 mins by HTRF assay. Format: functional, cell-based.

Sequence of Voltage-gated inwardly rectifying potassium channel KCNH2 (Q12809 whole entry): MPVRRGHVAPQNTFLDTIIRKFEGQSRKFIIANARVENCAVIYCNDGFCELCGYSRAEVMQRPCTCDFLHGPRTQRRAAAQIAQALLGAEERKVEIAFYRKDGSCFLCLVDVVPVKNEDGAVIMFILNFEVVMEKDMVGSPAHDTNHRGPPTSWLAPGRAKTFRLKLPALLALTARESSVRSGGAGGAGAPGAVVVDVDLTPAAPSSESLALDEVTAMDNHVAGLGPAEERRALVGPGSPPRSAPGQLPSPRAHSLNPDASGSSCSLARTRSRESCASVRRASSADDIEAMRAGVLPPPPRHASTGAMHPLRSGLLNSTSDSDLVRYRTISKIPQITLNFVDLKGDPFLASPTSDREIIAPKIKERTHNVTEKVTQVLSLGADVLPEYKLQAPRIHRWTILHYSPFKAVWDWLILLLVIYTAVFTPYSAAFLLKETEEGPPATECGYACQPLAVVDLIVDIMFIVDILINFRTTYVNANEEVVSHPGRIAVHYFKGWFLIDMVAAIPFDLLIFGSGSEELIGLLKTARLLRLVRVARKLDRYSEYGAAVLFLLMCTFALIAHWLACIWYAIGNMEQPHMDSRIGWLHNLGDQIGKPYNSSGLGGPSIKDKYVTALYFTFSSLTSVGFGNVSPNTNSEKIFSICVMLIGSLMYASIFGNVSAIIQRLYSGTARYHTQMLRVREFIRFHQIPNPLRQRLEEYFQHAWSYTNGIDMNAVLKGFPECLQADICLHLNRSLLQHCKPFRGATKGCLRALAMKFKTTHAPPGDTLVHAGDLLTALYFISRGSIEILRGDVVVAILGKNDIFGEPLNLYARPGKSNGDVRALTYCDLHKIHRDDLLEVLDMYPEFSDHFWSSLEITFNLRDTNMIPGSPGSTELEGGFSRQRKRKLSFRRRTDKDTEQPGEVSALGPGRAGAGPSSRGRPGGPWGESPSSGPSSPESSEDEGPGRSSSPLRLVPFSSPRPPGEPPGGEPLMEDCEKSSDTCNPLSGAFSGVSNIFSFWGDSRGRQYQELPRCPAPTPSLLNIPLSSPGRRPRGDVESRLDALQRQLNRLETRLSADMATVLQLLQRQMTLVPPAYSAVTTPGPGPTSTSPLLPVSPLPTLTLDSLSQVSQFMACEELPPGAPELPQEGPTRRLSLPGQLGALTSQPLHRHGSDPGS

On to `CC(C)(C)OC(=O)N1CCC(C2CCN(c3ncccn3)CC2)CC1`, for which the EC50 in [1] worked out at 526 nM; in data set [2], 523 nM.
With `O=C(NC1CC1)c1ccc(OCC2CC2C2CCN(c3ncc(Cl)cn3)CC2)cc1F` (racemic; 51), the EC50 in [1] turned out to be 38 nM; in data set [2], 9 nM.
For `CC(C)(C)OC(=O)N1CCC(C2CCN(c3ccnc(C#N)n3)CC2)CC1`, in that order: 6 nM and 11 nM.
For `Cc1nc(C#N)cc(N2CCC(C3CCN(C(=O)OC(C)(C)C)CC3)CC2)n1`, in that order: 2 nM and 2 nM.
For the molecule `CC(C)(C)OC(=O)N1CCC(C2CCN(c3ccncn3)CC2)CC1`, the EC50 in [1] was 116 nM; in [2], 379 nM.
On to `O=C(NC1CC1)c1ccc(OCC2CC2CC2CCN(c3ncc(Cl)cn3)CC2)cc1F` (racemic; 57), for which the EC50 in [1] was determined as 9 nM; in data set [2], 18 nM. The IC50 in data set [3] is over 30000 nM.
For `O=C(NC1CC1)c1ccc(OCC2CC2CC2CCN(c3ncc(Cl)cn3)CC2)cc1F` (racemic; 56), the 50% effective concentration (EC50) stood at 18 nM in [1] and 36 nM in data set [2]. The IC50 in data set [3] was 1200 nM.
Consider `Cc1cnc(N2CCC(C3CCN(c4ccc(S(C)(=O)=O)cc4)CC3)CC2)nc1`, for which the concentration giving a half-maximal response (EC50) is 57 nM in [1] and 45 nM in data set [2].
For `CS(=O)(=O)c1ccc(N2CCC(C3CCN(c4ccc(C(F)(F)F)cn4)CC3)CC2)cc1`, in that order: 13 nM and 8 nM.
For `CC(=O)c1ccc(N2CCC(C3CCN(C(=O)OC(C)(C)C)CC3)CC2)cc1`, in that order: 25 nM and 341 nM.
For `O=C(NC1CC1)c1ccc(OCCC2CC2C2CCN(c3ncc(Cl)cn3)CC2)cc1F` (racemic), the EC50 stood at 0.3 nM in data set [1] and 0.4 nM in data set [2]. Besides, in [3], the IC50 is over 30000 nM.
Turning to `CC(C)(C)OC(=O)N1CCC(C2CCN(c3ccc(S(C)(=O)=O)cc3)CC2)CC1`, the EC50 in data set [1] worked out at 22 nM; in [2] it was 36 nM. In data set [4], this molecule registered a clearance of 120 mL/min/kg. For the same molecule, the Vd in data set [5] turned out to be 6.9 L/kg. This molecule also had a half-life in data set [6] of 36 min. Moreover, the AUC with Mus musculus [7] worked out at 0.09 µM·kg·h/mg.
`CS(=O)(=O)c1ccc(N2CCC(C3CCN(c4ccc(F)cn4)CC3)CC2)cc1`: the EC50 in [1] worked out at 19 nM; in data set [2] it was 206 nM.
For `CS(=O)(=O)c1ccc(N2CCC(C3CCN(c4ncc(Cl)cn4)CC3)CC2)cc1`, in that order: 5 nM and 8 nM.
For `C[S+]([O-])c1ccc(N2CCC(C3CCN(C(=O)OC(C)(C)C)CC3)CC2)cc1` (stereo not given), in that order: 11 nM and 132 nM.
Consider `Clc1cnc(N2CCC([C@H]3C[C@H]3CCOc3ccc(-n4ccnn4)cc3)CC2)nc1`, for which the EC50 in data set [1] was determined as 4 nM; in data set [2], 6 nM. Moreover, the minimal effective dose in the data set with Mus musculus [8] came out at 10 mg/kg. Further, in data set [9], the concentration in solution (solubility) was 5000 µg/mL (≈ 11.8 mM).
Turning to `O=C(NC1CC1)c1ccc(OCCC2CC2C2CCN(c3ncc(Cl)cn3)CC2)cc1F` (single isomer, unassigned; (+)), the EC50 was found to be 14 nM in data set [1] and 5 nM in [2]. The IC50 in data set [3] was over 30000 nM.
`O=C(NC1CC1)c1ccc(OCC2CC2C2CCN(c3ncc(Cl)cn3)CC2)cc1F` (racemic; 52): the concentration giving a half-maximal response (EC50) was 20 nM in data set [1] and 23 nM in [2].
Regarding `O=C(NC1CC1)c1ccc(OCCCC2CC2CCCC2CCN(c3ncc(Cl)cn3)CC2)cc1F` (racemic), the EC50 in data set [1] turned out to be 0.2 nM; in data set [2], 0.8 nM.
Consider `CC(C)(C)OC(=O)N1CCC(C2CCN(c3cccc(S(C)(=O)=O)c3)CC2)CC1`, for which the EC50 in data set [1] amounted to 1900 nM. Besides, the Activity in data set [10] is under 10%.
For `CC(C)(C)OC(=O)N1CCC(C2CCN(c3cccnc3)CC2)CC1`, in that order: 3600 nM and under 10%.
For `CC(C)(C)OC(=O)N1CCC(C2CCN(c3cc(C#N)ncn3)CC2)CC1`, the values for the EC50 in data set [1] and in data set [2] were 6 nM and 31 nM, respectively.
For `Cc1ccc(N2CCC(C3CCN(C(=O)OC(C)(C)C)CC3)CC2)cc1`, in that order: 338 nM and 1900 nM.
For `Cc1cnc(N2CCC(C3CCN(c4cc(C#N)nc(C)n4)CC3)CC2)cn1`, the EC50 in data set [1] was 30 nM; in data set [2], 82 nM. This molecule came in with a concentration for half-maximal inhibition (IC50) in data set [3] of 5400 nM. In the data set with Mus musculus [11], the Activity amounted to 7%.
Consider `CS(=O)(=O)c1ccc(N2CCC(C3CCN(c4ccccn4)CC3)CC2)cc1`, for which the EC50 in data set [1] is 39 nM; in [2], 682 nM.
For `CSc1ccc(N2CCC(C3CCN(C(=O)OC(C)(C)C)CC3)CC2)cc1`, in that order: 600 nM and 513 nM.
For `O=C(NC1CC1)c1ccc(OCCC2CC2C2CCN(c3ncc(Cl)cn3)CC2)cc1F` (single isomer, unassigned; (-)), the 50% effective concentration (EC50) in [1] came out at 3 nM; in [2], 2 nM. In data set [3], this molecule gave an IC50 of 2600 nM.
Take `CC(C)(C)OC(=O)N1CCC(C2CCN(c3ccccc3)CC2)CC1`: the 50% effective concentration (EC50) in data set [1] turned out to be 1400 nM. The Activity in [10] was under 10%.
For `Cc1cccc(N2CCC(C3CCN(C(=O)OC(C)(C)C)CC3)CC2)c1`, in that order: 514 nM and under 10%.
Turning to `CS(=O)(=O)c1ccc(N2CCC(C3CCN(c4cnccn4)CC3)CC2)cc1`, the EC50 in data set [1] was 201 nM; in data set [2] it was 239 nM.
For the molecule `Cc1ccccc1N1CCC(C2CCN(C(=O)OC(C)(C)C)CC2)CC1`, the Activity in data set [10] and in data set [12] was under 10% in each case.
As for `CC(C)(C)OC(=O)N1CCC(C2CCN(c3cnccn3)CC2)CC1`, the figures for the concentration for a half-maximal effect (EC50) in data set [1] and in data set [2] were 103 nM and 142 nM, respectively.
Take `CS(=O)(=O)c1ccc(N2CCC(C3CCN(c4ccc(C#N)cn4)CC3)CC2)cc1`: the results for the EC50 in data set [1] and in data set [2] were 62 nM and 41 nM, respectively.
For `CS(=O)(=O)c1ccc(N2CCC(C3CCN(c4ncccn4)CC3)CC2)cc1`, in that order: 98 nM and 887 nM.
For `CC(C)(C)OC(=O)N1CCC(C2CCN(c3ccc(C(N)=O)cc3)CC2)CC1`, in that order: 76 nM and 165 nM.
For `Cc1cc(N2CCC(C3CCN(C(=O)OC(C)(C)C)CC3)CC2)nc(C#N)n1`, in that order: 1 nM and 2 nM.
Take `Cc1cnc(N2CCC(C3CCN(c4cc(C#N)nc(C)n4)CC3)CC2)nc1`: the figures for the 50% effective concentration (EC50) in data set [1] and in data set [2] were 8 nM and 10 nM, respectively. The same molecule registered an IC50 in [3] of 1800 nM. Moreover, the Activity with Mus musculus [11] is given as 46%.
Take `Cc1ccnc(N2CCC(C3CCN(c4ccc(S(C)(=O)=O)cc4)CC3)CC2)n1`: the Activity in data set [10] and in data set [12] was under 10% each time.
As to `Cc1cc(N2CCC(C3CCN(c4ncc(Cl)cn4)CC3)CC2)nc(C#N)n1`, the values for the EC50 in data set [1] and in data set [2] were 2 nM and 11 nM, respectively. Also, the Activity in the data set on Mus musculus [11] is 37%.
Regarding `CC(C)(C)OC(=O)N1CCC(C2CCN(c3ccccn3)CC2)CC1`, the EC50 was 831 nM in data set [1] and 2500 nM in data set [2].
For the molecule `Cc1ccc(N2CCC(C3CCN(c4ccc(S(C)(=O)=O)cc4)CC3)CC2)nc1`, the 50% effective concentration (EC50) in data set [1] is 18 nM; in [2], 73 nM.
For `CC(C)(C)OC(=O)N1CCC(C2CCN(c3cccc(C(N)=O)c3)CC2)CC1`, the Activity in data set [10] and in data set [12] was under 10% throughout.

A word on the EC50: it is the midpoint of the concentration-response curve. In general, IC50 refers to the concentration that inhibits the measured activity by half. A word on the half-life: it is how long it takes for the measured level to halve. Low readings indicate fast loss, high ones slow loss. As a reminder, the solubility is how much of the substance goes into solution per volume. Read a low solubility as little dissolved substance.

For the origin of these results see ChEMBL document CHEMBL1770133, “Design of potent and selective GPR119 agonists for type II diabetes” (Bioorg Med Chem Lett, 2011).
